How the values were obtained:
[1] = Inhibition of SCD in human NCI-H2122 cells expressing CYP4F11 assessed as reduction in cell viability incubated for 96 hrs by cell titer Glo reagent based assay
[2] = Inhibition of SCD in human H2009 cells non-expressing CYP4F11 assessed as reduction in cell viability incubated for 96 hrs by cell titer Glo reagent based assay
[3] = Inhibition of SCD in human NCI-H1155 cells non-expressing CYP4F11 assessed as reduction in cell viability incubated for 96 hrs by cell titer Glo reagent based assay

| Structure (SMILES) | IC50 [1] [µM] | IC50 [2] [µM] | IC50 [3] [µM] |
| --- | --- | --- | --- |
| COc1ccc2nc(NC(=O)c3ccc(C(=O)N4CCN(C)CC4)cc3)sc2c1 | > 50 | > 50 | – |
| Cc1nnc(-c2ccc(N3CCC(Oc4cc(F)ccc4Cl)CC3)nn2)o1 | < 0.01 | – | < 0.01 |
| O=C(Nc1ncc(-c2ccccc2)s1)c1ccc(C(=O)c2ccccc2)cc1 | 5.8 | 5 | – |
| O=C(Nc1nc(-c2ccccc2)cs1)c1ccc(C(=O)c2ccccc2)cc1 | 4.7 | 14.9 | – |
| O=C(Nc1nc2ccccc2s1)c1cccnc1 | 0.26 | > 50 | – |
| O=C(Nc1nccs1)c1ccc(C(=O)c2ccccc2)cc1 | 33 | > 50 | – |
| O=C(Nc1nc2ccccc2o1)c1ccc(C(=O)c2ccccc2)cc1 | 43 | – | – |
| COc1ccc2nc(NC(=O)CCc3ccccc3)sc2c1 | > 50 | – | – |
| COc1ccc2nc(NC(=O)c3cccnc3)sc2c1 | 1.1 | 37 | – |
| O=C(Nc1nc2ccccc2[nH]1)c1ccc(C(=O)c2ccccc2)cc1 | 0.042 | 1.8 | – |
| COc1ccc(C(=O)Nc2nc3cc(N)ccc3s2)cc1 | > 50 | > 50 | – |
| COc1ccc2nc(NS(=O)(=O)c3ccccc3)sc2c1 | > 50 | – | – |
